From PubChem BioAssay AID328 (DTP/NCI, 2004)
Several values for one entry are separate records, joined by “and”; a condition that tells them apart may be missing. Identical values can stand only once. Toxic doses and inconclusive results are not listed. Rule for the calls: active = survival T/C of 150% or more; inactive = T/C below 125% in these data.

Test system: BDF1 mice, P388 leukemia ip, median survival T/C
Assay: NCI In Vivo Anticancer Drug Screen. Data for tumor model P388 Leukemia (intraperitoneal) in B6D2F1 (BDF1) mice
Details: endpoint: median survival time, higher = longer survival
Procedure, shortened: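 Reported as T/C, where T is the survival measurement in dosed animals and C the same measurement in vehicle controls.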

[1] = dose: 100.0 mg/kg/injection, schedule: Q01DX009 (ip), vehicle: other
[2] = dose: 200.0 mg/kg/injection, schedule: Q01DX009 (ip), vehicle: other
[3] = dose: 50.0 mg/kg/injection, schedule: Q04DX003 (ip), vehicle: saline with Tween-80
[4] = dose: 100.0 mg/kg/injection, schedule: Q04DX003 (ip), vehicle: saline with Tween-80
[5] = dose: 200.0 mg/kg/injection, schedule: Q04DX003 (ip), vehicle: saline with Tween-80
[6] = dose: 400.0 mg/kg/injection, schedule: Q04DX003 (ip), vehicle: saline with Tween-80
[7] = dose: 100.0 mg/kg/injection, schedule: Q01DX009 (ip), vehicle: saline with Tween-80
[8] = dose: 100.0 mg/kg/injection, schedule: Q04DX003 (ip), vehicle: Klucel (hydroxypropylcellulose) (HPC)
[9] = dose: 200.0 mg/kg/injection, schedule: Q04DX003 (ip), vehicle: Klucel (hydroxypropylcellulose) (HPC)
[10] = dose: 400.0 mg/kg/injection, schedule: Q04DX003 (ip), vehicle: Klucel (hydroxypropylcellulose) (HPC)
[11] = dose: 400.0 mg/kg/injection, schedule: Q01DX009 (ip), vehicle: other

Measured: T/C

CC1=C(C(=O)OCc2ccccc2)C(c2ccc(Cl)cc2)C(C(=O)OCc2ccccc2)=C(C)N1
inactive: dose: 12.5 mg/kg/injection, schedule: Q01DX009 (ip), vehicle: other 100 % of control | dose: 25.0 mg/kg/injection, schedule: Q01DX009 (ip), vehicle: other 94 % of control | dose: 50.0 mg/kg/injection, schedule: Q01DX009 (ip), vehicle: other 90 % of control | [1] 89 % of control | [2] 90 % of control

CC1CCC2(CC1)NC(=O)N(CNc1ccccc1)C2=O (stereo unspecified)
inactive: [3] 100 % of control | [4] 87 % of control | [5] 100 % of control

O=[N+]([O-])c1cc(S(=O)(=O)NCc2ccco2)ccc1N/N=C/c1ccccn1
inactive: dose: 0.78 mg/kg/injection, schedule: Q01DX009 (ip), vehicle: saline with Tween-80 99 % of control | dose: 1.56 mg/kg/injection, schedule: Q01DX009 (ip), vehicle: saline with Tween-80 99 % of control | dose: 3.12 mg/kg/injection, schedule: Q01DX009 (ip), vehicle: saline with Tween-80 95 % of control

CCCCc1c2c(nn1C(=O)C=C(C)C)C(=O)C=C(Nc1ccccc1)C2=O
inactive: [4] 99 % of control | [5] 95 % of control | [6] 103 % of control

CN(Cc1ccccc1)/N=N/c1nc[nH]c1C(N)=O
inactive: dose: 25.0 mg/kg/injection, schedule: Q01DX009 (ip), vehicle: Klucel (hydroxypropylcellulose) (HPC) 95 % of control | dose: 50.0 mg/kg/injection, schedule: Q01DX009 (ip), vehicle: Klucel (hydroxypropylcellulose) (HPC) 110 % of control | dose: 100.0 mg/kg/injection, schedule: Q01DX009 (ip), vehicle: Klucel (hydroxypropylcellulose) (HPC) 110 % of control | dose: 200.0 mg/kg/injection, schedule: Q01DX009 (ip), vehicle: Klucel (hydroxypropylcellulose) (HPC) 100 % of control

COC(=O)N1c2ccccc2C=CC1C#N (stereo unspecified)
inactive: dose: 12.5 mg/kg/injection, schedule: Q01DX009 (ip), vehicle: saline with Tween-80 100 % of control | dose: 25.0 mg/kg/injection, schedule: Q01DX009 (ip), vehicle: saline with Tween-80 90 % of control and 100 % of control | dose: 25.0 mg/kg/injection, schedule: Q04DX003 (ip), vehicle: saline with Tween-80 100 % of control | dose: 50.0 mg/kg/injection, schedule: Q01DX009 (ip), vehicle: saline with Tween-80 90 % of control | [3] 109 % of control | [7] 100 % of control | [4] 100 % of control

CCOC(=O)C1C(=O)NC(=O)CC1C (stereo unspecified)
inactive: [7] 99 % of control | [4] 96 % of control | dose: 200.0 mg/kg/injection, schedule: Q01DX009 (ip), vehicle: saline with Tween-80 101 % of control | [5] 99 % of control | dose: 400.0 mg/kg/injection, schedule: Q01DX009 (ip), vehicle: saline with Tween-80 105 % of control | [6] 107 % of control

COC1=C(c2ccccc2)C(=O)CCc2ccccc21
inactive: [8] 100 % of control | [9] 100 % of control | [10] 100 % of control

NC(C(=O)O)c1cc(=O)[nH]o1 (stereo unspecified)
inactive: dose: 0.25 mg/kg/injection, schedule: Q01DX009 (ip), vehicle: Klucel (hydroxypropylcellulose) (HPC) 86 % of control | dose: 0.5 mg/kg/injection, schedule: Q01DX009 (ip), vehicle: Klucel (hydroxypropylcellulose) (HPC) 97 % of control | dose: 1.0 mg/kg/injection, schedule: Q01DX009 (ip), vehicle: Klucel (hydroxypropylcellulose) (HPC) 112 % of control

CC1=CCC2(C)C(=O)C1CC1=C2CC(C)(C)CC1=O (stereo unspecified)
inactive: dose: 100.0 mg/kg/injection, schedule: Q01DX009 (ip), vehicle: saline 100 % of control | dose: 400.0 mg/kg/injection, schedule: Q01DX009 (ip), vehicle: saline 100 % of control

CCCCCCCCCCCCCCCCOc1ccccc1CNc1cc(C(F)(F)F)ccc1Cl
inactive: [1] 90 % of control | [2] 100 % of control | [11] 105 % of control

COCCOC(C)C(=O)C(O)S(=O)(=O)O (stereo unspecified)
active: dose: 132.0 mg/kg/injection, schedule: Q01DX009 (ip), vehicle: saline 150 % of control | dose: 200.0 mg/kg/injection, schedule: Q01DX009 (ip), vehicle: saline 155 % of control | dose: 300.0 mg/kg/injection, schedule: Q01DX009 (ip), vehicle: saline 155 % of control

CCCC(C(=O)c1ccc(OC)cc1)C(O)(C(F)(F)F)C(F)(F)F (stereo unspecified)
inactive: [8] 95 % of control | [9] 100 % of control | [10] 100 % of control

Cc1c(OCc2ccccc2)cccc1[N+](=O)[O-]
inactive: [1] 109 % of control | dose: 100.0 mg/kg/injection, schedule: Q04DX003 (ip), vehicle: other 113 % of control | [2] 119 % of control | dose: 200.0 mg/kg/injection, schedule: Q04DX003 (ip), vehicle: other 100 % of control | [11] 109 % of control | dose: 400.0 mg/kg/injection, schedule: Q04DX003 (ip), vehicle: other 109 % of control

CNC(=O)OCc1c(-c2ccccc2)nc2sccn12
inactive: dose: 12.5 mg/kg/injection, schedule: Q01DX001 (ip), vehicle: Klucel (hydroxypropylcellulose) (HPC) 109 % of control | dose: 25.0 mg/kg/injection, schedule: Q01DX001 (ip), vehicle: Klucel (hydroxypropylcellulose) (HPC) 113 % of control
